Data as given in patent US6908931B2, “Tetrahydroisoquinoline derivatives as melatonin MT2 antagonists” (Bristol-Myers Squibb Company, priority 2003, dated 2005).

Biological target: T1, human MT2 receptor (Homo sapiens, UniProt P49286)
T1 construct: melatonin MT1 and MT2 receptors cDNA were individually subcloned into pcDNA3 and introduced into NIH-3T3 cells using Lipofectamine; expressed in transfected cells
T1 sequence (P49286 1-362): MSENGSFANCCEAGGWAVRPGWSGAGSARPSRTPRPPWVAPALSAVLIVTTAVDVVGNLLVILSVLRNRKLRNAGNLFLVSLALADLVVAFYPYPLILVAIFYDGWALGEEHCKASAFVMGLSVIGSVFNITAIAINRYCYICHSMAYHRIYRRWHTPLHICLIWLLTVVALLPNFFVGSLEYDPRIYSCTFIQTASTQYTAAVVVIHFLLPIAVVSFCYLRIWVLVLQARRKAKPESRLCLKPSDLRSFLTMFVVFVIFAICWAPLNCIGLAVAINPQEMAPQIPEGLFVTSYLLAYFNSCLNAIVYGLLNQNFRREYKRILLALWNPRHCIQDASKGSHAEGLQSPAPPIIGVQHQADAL
Assay: Melatonin receptor binding assay (MT2), 2-[125I]-iodomelatonin
Settings: not given
Description: Melatonin receptor binding assay.
Membrane homogenates: melatonin MT1 and MT2 receptors cDNA were individually subcloned into pcDNA3 and introduced into NIH-3T3 cells using Lipofectamine. […] For preparing membrane homogenates, pellets are thawed on ice, and re-suspended in TME buffer in the presence of 10 μg/ml aprotinin and leupeptin, and 100 μM phenylmethylsulfonylfluoride. The cells were then homogenized using a dounce homogenizer, and centrifuged. The resulting pellet was re-suspended with dounce homogenizer in TME (supplemented with the above protease inhibitors) and frozen. On the day of assay, a small aliquot was thawed on ice and re-suspended in the ice cold TME (1:50-1:100 v/v) and held on ice until assayed. Incubation is at 37° C. for 1 hour. Reaction is terminated by filtration. Filters were washed 3 times.

Compound	IC50
O=C(OCc1ccccc1)N1CCc2cc3c(cc2C1CCc1ccc(F)cc1)OCO3 (centres unmarked) [Example 100]	100 to 1000 nM

Same assay, conditions: membrane homogenates of NIH-3T3 cells expressing MT2; 2-[125I]-iodomelatonin 0.2 nM; 37° C., 1 hour; read-out: MT2 IC50

Compound	IC50
CC(=O)N1CCc2cc(F)ccc2C1CC(c1ccccc1)c1ccccc1 (centres unmarked) [Example 28]	100 to 1000 nM
COCC(=O)N1CCc2cc3c(cc2C1CCc1ccc(F)cc1)OCO3 (centres unmarked) [Example 96]	< 100 nM
CC(=O)N1CCc2cc3c(cc2C1CCc1ccc(Cl)cc1)OCO3 (centres unmarked) [Example 138]	100 to 1000 nM
O=C(C1CCCC1)N1CCc2cc3c(cc2C1CCc1ccc(F)cc1)OCO3 (centres unmarked) [Example 102]	< 100 nM
COc1cccc(CCC2c3cc(OC)c(OC)cc3CCN2C(C)=O)c1 (centres unmarked) [Example 86]	< 100 nM
CCCCCC(=O)N1CCc2cc(Br)c(OC)cc2C1CC(c1ccccc1)c1ccccc1 (centres unmarked) [Example 34]	100 to 1000 nM
COc1cc2c(cc1OC)C(CC(c1ccccc1)c1ccccc1)N(C(=O)C(F)(F)F)CC2 (centres unmarked) [Example 7, N-trifluoroacetyl 1-(2,2-diphenyleth-1-yl)-6,7-dimethoxy-1,2,3,4-tetrahydroisoquinoline]	100 to 1000 nM
COC(=O)N1CCc2cc3c(cc2C1CCc1ccc(F)cc1)OCC3 (centres unmarked) [Example 129]	100 to 1000 nM
COc1ccc(C(=O)N2CCc3ccc(OC)cc3C2CCc2ccc(F)cc2)cc1 (centres unmarked) [Example 111]	100 to 1000 nM
COc1cc2c(cc1OC)C(CCc1ccccc1)N(C(=O)CC(C)(C)C)CC2 (centres unmarked) [Example 63]	100 to 1000 nM
CCCCCCC(=O)N1CCc2cc(OC)c(OC)cc2C1CC(c1ccccc1)c1ccccc1 (centres unmarked) [Example 45]	100 to 1000 nM
O=C(OCc1ccccc1)N1CCc2cc3c(cc2C1CCc1ccc(Cl)cc1)OCO3 (centres unmarked) [Example 143]	100 to 1000 nM
COc1cc2c(cc1Br)CCN(C(=O)COc1ccccc1)C2CC(c1ccccc1)c1ccccc1 (centres unmarked) [Example 31]	100 to 1000 nM
COc1cc2c(cc1OC)C(CC(c1ccccc1)c1ccccc1)N(C(=O)c1ccccc1OC)CC2 (centres unmarked) [Example 42]	100 to 1000 nM
COc1cc2c(cc1OC)C(CC(c1ccccc1)c1ccccc1)N(C(=O)C1CCCCC1)CC2 (centres unmarked) [Example 44]	< 100 nM
CCC(=O)N1CCc2cc3c(cc2C1CCc1ccc(Cl)cc1)OCO3 (centres unmarked) [Example 147]	< 100 nM
COc1cc2c(cc1OC)C(CCc1ccccc1)N(C(=O)c1cccc([N+](=O)[O-])c1)CC2 (centres unmarked) [Example 65]	100 to 1000 nM
COc1ccc2c(c1)C(CC(c1ccccc1)c1ccccc1)N(C(=O)CC(C)(C)C)CC2 (centres unmarked) [Example 78]	100 to 1000 nM
CCCCCCC(=O)N1CCc2cc(Br)c(OC)cc2C1CC(c1ccccc1)c1ccccc1 (centres unmarked) [Example 35]	< 100 nM
COc1ccc2c(c1)C(CC(c1ccccc1)c1ccccc1)N(C(=O)c1ccc(C)cc1)CC2 (centres unmarked) [Example 82]	100 to 1000 nM
CCCCCCCCCC(=O)N1CCc2cc(OC)c(OC)cc2C1CCc1ccccc1 (centres unmarked) [Example 62]	100 to 1000 nM
COc1cc2c(cc1OC)C(CCc1ccccc1)N(C(N)=O)CC2 (centres unmarked) [Example 16]	100 to 1000 nM
COc1cc2c(cc1Br)CCN(C(C)=O)C2CC(c1ccccc1)c1ccccc1 (centres unmarked) [Example 22]	< 100 nM

Compound	IC50
COc1ccc2c(c1)C(CCc1ccc(F)cc1)N(C(=O)C=Cc1ccccc1)CC2 (centres unmarked) [Example 122]	100 to 1000 nM
O=C(C=Cc1ccccc1)N1CCc2cc3c(cc2C1CCc1ccc(Cl)cc1)OCO3 (centres unmarked) [Example 150]	100 to 1000 nM
O=C(c1ccno1)N1CCc2cc3c(cc2C1CCc1ccc(Cl)cc1)OCO3 (centres unmarked) [Example 145]	100 to 1000 nM
O=C(C1CC1)N1CCc2cc3c(cc2C1CCc1ccc(Cl)cc1)OCO3 (centres unmarked) [Example 139]	< 100 nM
COc1cc2c(cc1OC)C(CC(c1ccccc1)c1ccccc1)N(C(=O)c1ccc(C(F)(F)F)cc1)CC2 (centres unmarked) [Example 54]	100 to 1000 nM
COc1cc2c(cc1OC)C(CCc1ccccc1)N(C(=O)COc1ccccc1)CC2 (centres unmarked) [Example 56]	100 to 1000 nM
CC(=O)OCC(=O)N1CCc2cc3c(cc2C1CCc1ccc(F)cc1)OCO3 (centres unmarked) [Example 104]	100 to 1000 nM
COc1ccc(C(=O)N2CCc3cc(OC)c(OC)cc3C2CCc2ccccc2)cc1 (centres unmarked) [Example 64]	< 100 nM
COc1ccc2c(c1)CCN(C(C)=O)C2CC(c1ccccc1)c1ccccc1 (centres unmarked) [Example 17]	100 to 1000 nM
COc1ccc2c(c1)C(CCc1ccc(F)cc1)N(C(=O)COC(C)=O)CC2 (centres unmarked) [Example 118]	100 to 1000 nM
O=C(C=Cc1ccccc1)N1CCc2cc3c(cc2C1CCc1ccc(F)cc1)OCO3 (centres unmarked) [Example 108]	100 to 1000 nM
COc1cc2c(cc1OC)C(CC(c1ccccc1)c1ccccc1)N(C(=O)c1ccccc1)CC2 (centres unmarked) [Example 6, N-benzoyl 1-(2,2-diphenyleth-1-yl)-6,7-dimethoxy-1,2,3,4-tetrahydroisoquinoline]	100 to 1000 nM
COc1ccc2c(c1)C(CCc1ccc(F)cc1)N(C(=O)CCl)CC2 (centres unmarked) [Example 112]	< 100 nM
COC(=O)N1CCc2cc(OC)c(OC)cc2C1CC(c1ccccc1)c1ccccc1 (centres unmarked) [Example 10, N-carbomethoxy 1-(2,2-diphenyleth-1-yl)-6,7-dimethoxy-1,2,3,4-tetrahydroisoquinoline]	< 100 nM
COc1ccc2c(c1)C(CCc1ccc(F)cc1)N(C(=O)C1CC1)CC2 (centres unmarked) [Example 109]	< 100 nM
COc1cc2c(cc1OC)C(CCc1ccccc1)N(C(=O)Cc1ccccc1)CC2 (centres unmarked) [Example 68]	100 to 1000 nM
CCC(=O)N1CCc2cc(OC)c(OC)cc2C1CC(c1ccccc1)c1ccccc1 (centres unmarked) [Example 3, N-propionyl 1-(2,2-diphenyleth-1-yl)-6,7-dimethoxy-1,2,3,4-tetrahydroisoquinoline]	< 100 nM
CC(C)COC(=O)N1CCc2cc3c(cc2C1CCc1ccc(F)cc1)OCC3 (centres unmarked) [Example 135]	100 to 1000 nM
COc1cc2c(cc1OC)C(CC(c1ccccc1)c1ccccc1)N(C(C)=O)CC2 (centres unmarked) [Example 1, N-acetyl 1-(2,2-diphenyleth-1-yl)-6,7-dimethoxy-1,2,3,4-tetrahydroisoquinoline]	< 100 nM
CC(=O)N1CCc2cc3c(cc2C1CC(c1ccccc1)c1ccccc1)OCO3 (centres unmarked) [Example 91]	100 to 1000 nM
O=C(C1CC1)N1CCc2cc3c(cc2C1CCc1ccc(F)cc1)OCO3 (centres unmarked) [Example 95]	< 100 nM
COc1ccc2c(c1)C(CCc1ccc(F)cc1)N(C(=O)OCc1ccccc1)CC2 (centres unmarked) [Example 114]	100 to 1000 nM
CC(C)(C)CC(=O)N1CCc2cc3c(cc2C1CCc1ccc(Cl)cc1)OCO3 (centres unmarked) [Example 149]	100 to 1000 nM
